Values quoted from earlier work in paper PMC5459304 (International journal of toxicology, 2017).

System: patients

Compound: CC1(C)C(/C=C/C=C/C=C/C=C2\N(CCCCS(=O)(=O)O)c3ccc4ccccc4c3C2(C)C)=[N+](CCCCS(=O)(=O)[O-])c2ccc3ccccc3c21 [ICG, indocyanine green]
- severe reaction rate (1 severe reaction among 1226 patients): 0.05%
- number of reactions (1226 patients): 7 reactions out of 1923 ICG angiograms
- adverse reaction rate (1923 ICG angiograms in 1226 patients): 0.3%
- number of severe reactions (ICG angiograms from Japanese ophthalmologists): 2 severe reactions among 2820 patients
